Experimental data reported in publication PMC9686139, “Furanoditerpenes from Spongia (Spongia) tubulifera Display Mitochondrial-Mediated Neuroprotective Effects by Targeting Cyclophilin D” (ACS Chemical Neuroscience, 2022).
Values joined by “and” are separate entries in the source; they are usually repeats but may differ in a detail not shown here. Identical values can stand only once.

Assays:
SH-SY5Y cells [1] = experiment: ROS intracellular levels, carboxy-H2DCFDA; format: cell-based, human
Procedure: Next, the capacity of S. tubulifera metabolites to decrease ROS intracellular levels was evaluated (Figure 4). […] Regarding the oxidative stress model, H2O2 augmented the levels of oxidant molecules up to 125.1 ± 2.4% (p < 0.01) and the known antioxidant Vit E, used as a positive control, induced a reduction in ROS release of 24% with respect to cells treated only with H2O2 (p < 0.05).
Figure 4 ROS intracellular levels after treatment with compounds. Furanoditerpenes were added for 6 h in the absence and presence of 150 μM H2O2. Then, the ROS content was measured with the fluorescent dye 5-(and-6)-carboxy-2′,7′-dichlorodihydrofluorescein diacetate (carboxy-H2DCFDA). Results from (a) 1, (b) 2, (c) 3, (d) 4, and (e) 5. Vitamin E (Vit E) at 25 μM was used as a positive control. Data expressed as the percentage of untreated control cells. Mean ± SEM of three experiments performed in triplicate. Statistical differences determined by one-way ANOVA test followed by Dunnett’s post hoc test. ^##p < 0.01 compared to control cells. *p < 0.05, **p < 0.01, and ***p < 0.01 compared to H2O2 control.
(§1) For these experiments, cells were seeded in 384-well plates and treated as described above. All of the assays were carried out as previously described.[15]
The fluorescent dye 5-(and-6)-carboxy-2′,7′-dichlorodihydrofluorescein diacetate (carboxy-H2DCFDA) was used to evaluate ROS levels. After treatment with compounds and H2O2, cells were washed twice with serum-free medium. Next, cells were loaded with 20 μM carboxy-H2DCFDA dissolved in serum-free medium, and the plate was incubated for 1 h at 37 °C and 300 rpm. Then, 100 μL of PBS were added to each well for 30 min at 37 °C and 300 rpm. After this incubation, the fluorescence was read at […].

CypD = CypD expression by Western blot
Source text: (b) CypD expression after treatment with S. tubulifera metabolites. (c) Effect of compounds on the CypD expression under oxidative stress conditions. […] Protein band expression was normalized by actin levels. Results are mean ± SEM of three replicates carried out in duplicate. Data expressed as the percentage of untreated control cells and H2O2 control. Values compared by one-way ANOVA and Dunnett’s tests. ^#p < 0.05 and ^##p < 0.01 compared to control cells. *p < 0.05 and **p < 0.01 compared to cells treated with H2O2 alone.
In this context, the expression of this protein was analyzed after treatment with compounds. CypD cytosolic levels were evaluated after treatment with 1–5 alone for 6 h and after the coaddition of diterpenes and H2O2 to get a complete insight into diterpene mitochondria-related effects.
SH-SY5Y cells were cultured in 12-well plates at 1 × 10^6 cells per well and allowed to settle down for 24 h.
Cells were washed twice with ice-cold PBS, and a hypotonic solution was added (20 mM tris–HCl pH 7.4, 10 mM NaCl, and 3 mM MgCl2, containing phosphatase and protease inhibitor cocktail). Cells were incubated for 15 min on ice and centrifuged at 3000 rpm and 4 °C for 15 min. The supernatant was collected as the cytosolic fraction, and protein concentration was quantified with the Direct Detect instrument (Merck Millipore, Darmstadt, Germany).[15]
Electrophoresis was resolved in 4–20% sodium dodecyl sulfate polyacrylamide gels (Biorad, Hercules, CA), containing 15 μg of cytosolic protein from each sample. The Trans-Blot semidry transfer cell (Biorad) was used to transfer proteins to poly(vinylidene difluoride) (PVDF) membranes (Merck Millipore). Snap i.d. system (Merck Millipore) was used for membrane blocking and antibody incubation. […] Immunoreactive bands were detected with Supersignal West Pico Luminiscent Substrate and Supersignal West Femto Maximum Sensitivity Substrate. Diversity GeneSnap system and software (Syngene, Cambridge, U.K.) were used for protein band detection. Experiments were performed three independent times in duplicate.

human CypD = human CypD (Homo sapiens, UniProt P30405); experiment: Surface plasmon resonance binding to immobilized CypD; details: for kon: read-out: ka, CypD
Sequence of human CypD (P30405 30-207): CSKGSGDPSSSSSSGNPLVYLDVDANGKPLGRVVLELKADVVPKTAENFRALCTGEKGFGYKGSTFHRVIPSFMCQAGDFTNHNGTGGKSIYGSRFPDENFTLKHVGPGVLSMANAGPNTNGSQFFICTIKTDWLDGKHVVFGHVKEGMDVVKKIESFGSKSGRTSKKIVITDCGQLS
Procedure: With this objective, surface plasmon resonance (SPR) experiments were performed. CypD was immobilized in the sensor surface as a ligand, and 1–5 were injected as analytes. […] For immobilization, amine groups were activated with 1-ethyl-3-(3-dimethylaminopropyl)carbodiimide hydrochloride (EDC) and N-hydroxysuccinimide (NHS) and 50 μg/mL of human CypD dissolved in 5 mM sodium acetate (pH 4.5) was added. […] All of the assays were carried out with phosphate-buffered saline (PBS)—0.05% Tween (pH 7.2) as the running buffer, with a flow rate of 20 μL/min at 24 °C.
The left panels present association curves obtained by the addition of compounds over immobilized CypD and subtraction of their respective solvent control. The right panels show fitting curves for equilibrium binding. Representative graphs of one independent replicate. […] All injections were performed using PBS, 0.05% Tween (pH 7.2) as the running buffer. Kinetic equilibrium dissociation constants (KD) and fitting curves were obtained with TraceDrawer software.
(§2) SPR measurements were performed using the MP-SPR Navi 210A VASA instrument with SPR Navi Control software (BioNavis, Tampere, Finland). All of the analyses were carried out in three-dimensional (3D) carboxymethyl dextran hydrogel-coated (CMD-3DM) sensors (BioNavis). PBS, 0.05% Tween (pH 7.2) was used as the running buffer for sensor activation, protein immobilization, and analyte injection. All buffers were degassed and filtered by 0.22 μm before use. The flow rate and temperature were set at 20 μL/min and 24 °C, respectively. A commercial Amine Coupling Kit (Xantec bioanalytics GmbH, Düsseldorf, Germany) was used for sensor activation and Cyps immobilization. The chip surface was preconditioned with 2 M NaCl and 0.01 M NaOH. Then, the surface was activated by the addition of 0.2 M 1-ethyl-3-(3-dimethylaminopropyl)carbodiimide hydrochloride (EDC) and 0.05 M N-hydroxysuccinimide (NHS). After activation, 50 μg/mL of CypA or CypD dissolved in 5 mM sodium acetate buffer (pH 4.5) were injected for immobilization on the sensor surface. […] Compound injections were performed in serial mode, and the reference channel signal was subtracted from the analyte sensorgram. Data were processed with MP-SPR Navi Data Viewer (BioNavis), and KD values were obtained using the 1:1 Langmuir model with mass transport considerations of TraceDrawer software (RidgeView Instruments Ab, Uppsala, Sweden). All of the experiments were performed three independent times.

ERK = ERK activation (phosphorylated/total) by Western blot; format: cell-based, human
Source text: Considering that CypD has several upstream regulators, which are also considered mPTP modulators,[10] the study was continued by evaluating if S. tubulifera metabolites were affecting the activation of two kinases involved in the control of mPTP by CypD, ERK, and GSK3β (Figure 7). Regarding ERK, its activation has been related to the inhibition of CypD-mediated mPTP opening. Therefore, the phosphorylated state of residues implicated in ERK activation (Thr202, Tyr204, Thr185, and Tyr187) was determined, as well as its total levels. Any of the compounds were able to activate ERK under neither physiological nor oxidative conditions (Figure 7a,b). However, 3 inhibited the kinase in both situations, with levels of 78.6 ± 4.8% (p < 0.05) and 67.3 ± 9.4% (p < 0.01), respectively. […] On the other hand, GSK3β inhibition results in a reduction in mPTP opening since the kinase binds to CypD, decreasing its interaction with mPTP components.[10] In the case of GSK3β, Ser9 phosphorylation was determined, a residue implicated in kinase inhibition (Figure 7c,d).
Figure 7 Analysis of compound effects on CypD upstream regulators. SH-SY5Y cells were treated with 1–5 at 0.001 μM for 6 h, and their effects on kinase activation were evaluated. […] Kinase expression was calculated as the ratio between phosphorylated and total levels. […] Data expressed as the percentage of untreated control cells and H2O2 control. […]

SH-SY5Y cells [2] = experiment: GSH content, Thiol Tracker Violet; format: cell-based, human; details: for GSH content: 150 μM H2O2, 6 h, % of untreated control cells
Procedure: To confirm the antioxidant properties of S. tubulifera compounds, the levels of the most important nonenzymatic antioxidant of cells, glutathione (GSH), were assessed. […] Regarding diterpene 2, an increase in the nonenzymatic antioxidant was observed when cells were cotreated with H2O2 and this compound at 0.001 and 1 μM (p < 0.05) (Figure 5b). No effects were found after the addition of 3 (Figure 5c), but 4 and 5 presented interesting results (Figure 5d,e).
Figure 5 Effect of S. tubulifera metabolites in the GSH content of human neuroblastoma cells. SH-SY5Y cells were treated with compounds for 6 h with and without 150 μM H2O2. GSH levels were monitored with Thiol Tracker Violet dye. (a) Compound 1, (b) compound 2, (c) compound 3, (d) compound 4, and (e) compound 5 results. Vitamin E (Vit E) at 25 μM was used as a positive control. Mean ± SEM of three experiments performed in triplicate. Data presented as the percentage of untreated control cells and compared by one-way ANOVA and Dunnett’s tests. ^##p < 0.01 compared to control cells. *p < 0.05 compared to cells treated with H2O2 alone.
as §1
Thiol Tracker Violet was used to measure intracellular GSH levels, following the manufacturer’s instructions. Briefly, human neuroblastoma cells were rinsed twice with PBS and the fluorescence dye at 10 μM was added. The plate was incubated for 30 min at 37 °C and 300 rpm, and the fluorescence was measured at 404 nm excitation and 526 nm emission in a plate reader. All experiments were performed three independent times in triplicate.

Human CypA = Human CypA (Homo sapiens, UniProt P62937); experiment: Surface plasmon resonance binding to immobilized CypA; details: for Kd: CypA, SPR, 1:1 Langmuir model, PBS-T pH 7.2, 24 °C; for kon: read-out: ka, CypA
Sequence of Human CypA (P62937 whole entry): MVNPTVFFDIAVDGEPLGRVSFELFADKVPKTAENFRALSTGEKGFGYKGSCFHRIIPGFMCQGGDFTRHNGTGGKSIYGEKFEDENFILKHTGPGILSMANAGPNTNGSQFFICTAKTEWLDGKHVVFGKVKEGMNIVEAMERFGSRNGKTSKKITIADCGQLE
Procedure: The protein was immobilized on the sensor surface by amino coupling, as described above (Figure S7), and compounds at several concentrations were added. The same conditions set for CypD were used for CypA experiments, with a flow rate of 20 μL/min and PBS-T (pH 7.2) as the running buffer.
Figure 9 Binding of compounds to CypA measured by surface plasmon resonance. The left panels present association curves obtained by the addition of compounds over immobilized CypA and subtraction of their respective vehicle signal. The right panels show fitting curves for equilibrium binding. Representative graphs of one independent replicate. […] Kinetic equilibrium dissociation constants (KD) and fitting curves were obtained with TraceDrawer software.
as §2

[3] = system: mitochondrial permeability transition pore (mPTP); details: 0.25 h, 0.001 µM
Procedure: (§3) SH-SY5Y cells were treated for 15 min with 1–5, and 1 mM tert-butyl hydroperoxide (TBHP) was used to open the pore. Cells were loaded with calcein-AM, which accumulates in cytosol and cell compartments and with CoCl2 that quenches cytosolic fluorescence but not the mitochondrial signal.[17] Then, fluorescence was analyzed by flow cytometry (Figure 6a). […] (a) Analysis of mPTP opening. Cells were treated with compounds at 0.001 μM for 15 min, and pore opening was induced with 1 mM TBHP. Calcein-AM and CoCl2 were used to measure mPTP aperture by flow cytometry. […] Values are presented as the percentage of control cells. Data are mean ± SEM of three independent experiments. Statistical differences determined by one-way ANOVA and Dunnett’s tests. ^###p < 0.001 compared to control cells. *p < 0.05 and **p < 0.01 compared to cells treated only with TBHP.
(§4) The inhibition of mPTP by compounds was determined with the MitoProbe Transition Pore Assay Kit, as previously described.[21] For this assay, cells were seeded in 12-well plates at 5 × 10^5 cells per well and allowed to grow for 24 h. Then, SH-SY5Y cells were detached with Detachin solution (Genlatis, San Diego), washed with PBS, and resuspended in PBS buffer with 0.6 mM CaCl2. Cells were loaded with 0.01 μM calcein-AM and incubated at 37 °C for 15 min. Then, 0.4 mM CoCl2 and compounds at 0.001 μM were added and cells were incubated for 15 min at 37 °C. After this incubation, cells were centrifuged, resuspended in 100 μL of calcium-free PBS, and kept on ice. Finally, TBHP at 1 mM was added for 3 min to the cells to induce the pore opening. […] The fluorescence of 10 000 events was analyzed with IDEAS Application vs 6.0 (Amnis Corporation, Luminex Corp).

[4] = system: mitochondrial permeability transition pore (mPTP); experiment: mPTP opening, calcein-AM/CoCl2 flow cytometry; details: 0.001 μM, 15 min pretreatment, TBHP 3 min
Procedure: as §3, §4

Row | Kd (human CypD) [µM] | kon (human CypD) [M⁻¹ s⁻¹] | Kd (Human CypA) | kon (Human CypA) [M⁻¹ s⁻¹] | maximum SPR signal, CypA (Human CypA) [mdeg] | Compound | reduction in ROS release with respect to cells treated only with H2O2 (SH-SY5Y cells [1]; Vit E 25 μM, 150 μM H2O2, 6 h) [%] | effect on CypD expression (CypD; 0.001 μM) | effect on ROS content (SH-SY5Y cells [1]; cotreatment with 150 μM H2O2, 6 h, all four concentrations 0.001-1 μM) | ERK activation (phosphorylated/total) (ERK; compound 0.001 μM + 150 μM H2O2, 6 h, % of H2O2 control) [%] | ERK activation (phosphorylated/total) (ERK; compound alone 0.001 μM, 6 h, % of untreated control cells) [%] | effect on GSH content (SH-SY5Y cells [2]; compound alone and with 150 μM H2O2, 6 h) | calcein fluorescence (mPTP opening) [3] [%] | CypD expression under oxidative damage (CypD; compound 0.001 μM + 150 μM H2O2, 6 h, % of H2O2 control cells) | inhibition of mPTP opening after oxidative injury [4] | selectivity between CypD and CypA (KD values) (human CypD; SPR, CypD versus CypA) | GSH content (SH-SY5Y cells [2]; compound 0.001 μM) [%] | GSH content (SH-SY5Y cells [2]; compound 0.1 μM) [%]
1 |  |  |  |  |  | Vitamin E [Vit E, reference compound] | 24 |  |  |  |  |  |  |  |  |  |  | 
2 | 7 ± 0.04 | 3750 | 6.39 µM and 6.4 µM | 3190 |  | CC1=C(O)C(=O)C[C@]2(C)[C@H]3CCc4cocc4[C@]3(C)CC[C@@H]12 [Compound 3] |  | did not affect CypD expression | diminished ROS levels | 67.3 ± 9.4 | 78.6 ± 4.8 | No effects |  |  |  |  |  | 
3 | 2.97 ± 0.01 | 10000 | 4.34 µM and 4.3 µM | 3590 | 13.6 | C[C@]12C=C(O)C(=O)[C@](C)(CO)[C@@H]1CC[C@@]1(C)c3cocc3CC[C@H]21 [Compound 5, spongian diterpene 17] |  |  |  |  |  |  | 90.3 ± 5.3 | about 54% | able to inhibit mPTP opening | selectivity toward the mitochondrial isoform | 110.9 ± 10.0 | 118.9 ± 12.0
